The text below walks through data of patent publication US20090124672A1 (priority 2007, published 2009).

“And” between values parts separate entries of the source, which are not always exact repeats. Identical values can stand only once.

One assay concerns Syrian golden hamsters. To be noted: compared with daidzin; cited from earlier work.
Assay [1] addresses T1, hALDH2 (recombinant human mitochondria ALDH) (Homo sapiens, UniProt P05091).
T1 sequence (P05091 18-517): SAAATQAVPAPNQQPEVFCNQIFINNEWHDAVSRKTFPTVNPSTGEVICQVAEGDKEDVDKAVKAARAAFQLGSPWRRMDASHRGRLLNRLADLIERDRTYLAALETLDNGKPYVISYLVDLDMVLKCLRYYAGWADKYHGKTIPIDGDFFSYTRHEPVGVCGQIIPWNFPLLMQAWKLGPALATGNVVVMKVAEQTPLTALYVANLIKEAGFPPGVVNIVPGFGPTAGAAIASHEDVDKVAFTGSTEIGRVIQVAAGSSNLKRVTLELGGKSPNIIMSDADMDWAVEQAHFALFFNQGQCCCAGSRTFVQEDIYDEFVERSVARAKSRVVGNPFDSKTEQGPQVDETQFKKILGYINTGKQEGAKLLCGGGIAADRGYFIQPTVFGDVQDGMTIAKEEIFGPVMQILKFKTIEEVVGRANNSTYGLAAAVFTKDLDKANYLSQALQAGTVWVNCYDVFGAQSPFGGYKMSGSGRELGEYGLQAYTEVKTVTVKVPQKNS
Briefly: ALDH2 inhibition assay (NADH formation, formaldehyde substrate). Format: biochemical. The method, boiled down:
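1 nM enzyme in 50 mM sodium phosphate pH 7.4 with 1.2 mM NAD+ and compound at 0.03–1000 nM; reaction started with 0.15 mM formaldehyde at 25 °C. NADH formation followed by fluorescence (ex 340/em 460 nm). IC50 from sigmoidal fits with floating Hill slope; apparent Ki from Morrison equation if tight binding.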

Another assay concerns the target T2, hMAO-A (Homo sapiens, UniProt P21397).
T2 construct: purchased Sigma M7316
T2 sequence (P21397 1-527): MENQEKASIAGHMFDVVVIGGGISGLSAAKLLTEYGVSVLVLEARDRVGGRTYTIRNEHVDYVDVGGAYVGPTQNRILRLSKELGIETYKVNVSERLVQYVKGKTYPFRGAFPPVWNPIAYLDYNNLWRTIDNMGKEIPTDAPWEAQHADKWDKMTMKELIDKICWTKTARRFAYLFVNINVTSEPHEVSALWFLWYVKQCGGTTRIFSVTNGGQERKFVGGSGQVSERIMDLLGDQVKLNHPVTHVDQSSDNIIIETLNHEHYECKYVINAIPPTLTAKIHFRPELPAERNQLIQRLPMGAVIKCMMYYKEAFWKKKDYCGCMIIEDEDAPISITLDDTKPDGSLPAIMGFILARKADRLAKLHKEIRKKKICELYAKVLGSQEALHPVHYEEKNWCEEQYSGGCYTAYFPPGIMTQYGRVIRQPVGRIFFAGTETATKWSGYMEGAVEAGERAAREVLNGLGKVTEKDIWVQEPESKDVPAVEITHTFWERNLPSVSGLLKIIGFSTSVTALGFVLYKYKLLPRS
The assay can be described thus: MAO-A inhibition assay (Amplex Red, horseradish peroxidase-coupled). Format: biochemical. As for the experimental part:
(§1) MAO-A (Sigma M7316) and MAO-B (Sigma M7441) inhibition assays were conducted in 96-well micro-plates according to the method described by Zhou et al. [Analytical Biochemistry 253, 169-174, 1997]. Both assays were performed in potassium phosphate buffer (0.1 M, pH 7.5) containing 0.5 mM tyramine (Sigma T2879), 0.12 mM N-acetyl-3,7-dihydrophenoxazine (Amplex Red, Invitrogen A12222), 1.2 unit/ml horseradish peroxidase (Sigma P2088), 0.6 unit/ml MAO-A or 2.5 unit/ml MAO-B, and various concentrations of test compounds (0.1 nM to 10 uM). Reactions were initiated by the addition of a pre-mixed solution of tyramine, horseradish peroxidase and Amplex Red, and were allowed to proceed at 37° C. for 30 min. Enzyme activities were determined by measuring absorbance at 570 nm (SpectralMax Plate reader), absorbance of oxidized Amplex Red generated by this horseradish peroxidase-coupled reaction. Nonspecifically formed products were determined in the presence of 2 and 10 µM clorgyline and deprenyl for MAO-A and MAO-B, respectively. IC50 values were determined by fitting concentration-inhibition data to sigmoidal dose-response curves with two-floating parameters: IC50 and Hill coefficient.

Another assay addresses T3, hMAO-B (Homo sapiens, UniProt P27338).
T3 construct: purchased Sigma M7441
T3 sequence (P27338 1-520): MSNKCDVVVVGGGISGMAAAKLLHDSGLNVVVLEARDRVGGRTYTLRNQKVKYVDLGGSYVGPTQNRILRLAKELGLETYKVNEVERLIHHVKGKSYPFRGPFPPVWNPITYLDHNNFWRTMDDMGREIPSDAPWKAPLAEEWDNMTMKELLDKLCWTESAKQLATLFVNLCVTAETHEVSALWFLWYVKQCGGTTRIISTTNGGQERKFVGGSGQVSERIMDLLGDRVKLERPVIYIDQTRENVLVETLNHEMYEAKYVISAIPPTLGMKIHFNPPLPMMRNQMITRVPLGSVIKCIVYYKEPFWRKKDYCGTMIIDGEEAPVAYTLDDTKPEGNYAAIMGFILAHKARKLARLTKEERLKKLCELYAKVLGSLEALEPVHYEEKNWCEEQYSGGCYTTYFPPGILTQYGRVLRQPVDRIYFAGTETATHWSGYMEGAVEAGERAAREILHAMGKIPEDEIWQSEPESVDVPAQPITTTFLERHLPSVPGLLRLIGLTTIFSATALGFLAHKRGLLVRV
The assay can be described thus: MAO-B inhibition assay (Amplex Red, horseradish peroxidase-coupled). The assay is classed as biochemical. How it is done: as §1

Assay [2] relates to Sprague-Dawley rats treated with mCPP. Briefly: Social interaction test, mCPP-induced anxiety. Format: in vivo, rat. The following applies: 3.75, 7.5 or 15 mg/kg 15 min before 0.5 mg/kg mCPP. The source says:
(§2) Experienced observers blinded to the experimental conditions carried out the social interaction test in a square open field (60 cm by 60 cm, with 16 15×15 cm squares marked out on the floor). Pairs of rats receiving the same treatment were placed in the arena and the onset of social interactions recorded. This procedure has been validated by previous studies (Overstreet et al. (2002); Overstreet et al. (2003)). Rats were unfamiliar with the open field and lighting conditions were low in order to generate an intermediate level of anxiety-related behavior. Rat pairs matched according to weight and treatment were placed simultaneously in the open field. During the 5-min session, line crosses (by two forepaws) and time spent in social interaction (grooming, sniffing, following) were scored individually for each rat (Kampov-Polevoy et al., 2000; Overstreet et al., 2002, 2003).
(§3) Fifteen min later the rats received a second injection of 0.5 mg/kg DMCM (methyl 6,7-demethoxy-4-ethyl-β-carboline-3-carboxylate) or vehicle (acidified saline). The rats were placed in the open field arena 15 min after the second injection for recording social interaction and locomotor activity for 5-min. Approximately one week later the rats were treated with Compound A (3.75, 7.5 or 15 mg/kg). The 5-HT2C agonist mCPP (m-chlorophenylpiperazine; 0.5 mg/kg) or vehicle (saline) was given 15 min later. After another 15 min period, the social interaction and locomotor activity for five min were recorded.

Assay [3] has as its system alcohol-withdrawn Sprague-Dawley (SD) rats. Briefly: Social interaction test, repeated alcohol withdrawal-induced anxiety. Format: in vivo, rat.
Source text: as §2
Ethanol Exposure Studies: Individually housed Sprague-Dawley (SD) rats were given a complete nutritious liquid diet (Knapp et al., 2004; Overstreet et al., 2002) after 5 days to adapt to local conditions. Three days later, most of rats received a 4.5% ethanol liquid diet and others remained on the control liquid diet without ethanol. Rats consumed ethanol for 15 days in three cycles of 5 days each separated by a 2-day withdrawal period between cycles. This design enabled us to test two treatment regimens with Compound A. Acute effects of Compound A (3.75 and 15 mg/kg) were determined 4.5 hr after the 3rd ethanol cycle to allow alcohol washout. The social interaction test was carried out 30 min later.

Assay [4] deals with Rats. The assay can be described thus: Example 32 social interaction, line crosses and center entries. The assay is classed as in vivo, rat. The arrangement: Social Interaction, Mean / Social Interaction, individual rat: unit not given here. To be noted: 15 mg/kg. The text has this: (§4) One noninjected rat was included in the control group for water intake.
Assay [5] deals with Rats. The assay can be described thus: Example 32 alcohol, food and water intake. The assay is classed as in vivo, rat. The following applies: 15 mg/kg.
Source text: as §4

Assay [6] concerns Sprague-Dawley rats treated with DMCM. The assay can be described thus: Social interaction test, DMCM-induced anxiety. Format: in vivo, rat. The following applies: 3.75, 7.5 or 15 mg/kg i.p. 15 min before 0.5 mg/kg DMCM.
Source text: as §2, §3

Assay [7] relates to congenitally anxious Fawn-Hooded (FH) rats. Briefly: Social interaction test, Fawn Hooded (FH) rat model of anxiety. The assay is classed as in vivo. To be noted: 15 mg/kg i.p., 30 min after injection.
Source text: as §2

For assay [8], the system named is SD rats subjected to restraint stress. Briefly: Social interaction test, restraint-induced stress. The assay is classed as in vivo, rat. The following applies: 15 mg/kg pretreatment.
Source text: as §2
Restraint-Induced Stress Study: SD rats were injected with either CMC vehicle or 15 mg/kg Compound A in vehicle and subjected to restraint stress in decapicones for one hour. After a 30-min recovery period, the rats were exposed to the open field arena for […] and social interaction and line crosses recorded.

Setting [9] is: 30 min before test, listed as Comp. A.

As for `O=c1c(-c2ccc(O)cc2)coc2cc(O)ccc12` [daidzein], in the assay with Syrian golden hamsters, the suppressing ethanol uptake entry is given as “effective in suppressing ethanol uptake, but with decreased potency”.
The IC50 is the concentration at which inhibition is half-maximal. On to `CCOC(=O)c1ccc(COc2ccc3c(=O)c(-c4ccc(O)cc4)coc3c2)cc1` [PT-34, ethyl 4-{[3-(4-hydroxyphenyl)-4-oxochromen-7-yloxy]methyl}benzoate], for which the IC50 in assay [1] is 130 nM; against hMAO-A it was 24000 nM; at hMAO-B it was 2300 nM.
Broadly, the inhibition is the change of the read-out against control, counted positive when it falls. With `N#CCOc1ccc2c(=O)c(-c3ccc(O)cc3)coc2c1` [PT-88, 2-[3-(4-hydroxyphenyl)-4-oxochromen-7-yloxy]ethanenitrile], the results for the IC50 (in [1]; at hMAO-A) were 23 nM and 6200 nM, respectively. Moreover, the inhibition at 10 µM on hMAO-B (at 10 μM, read-out: hMAO-B inhibition (IC50 hMAO-B)) was 35%.
For the compound `CS(=O)(=O)Nc1ccc(-c2coc3cc(OCc4cccc(C(=O)O)c4)ccc3c2=O)cc1` [Compound A, 3-[(3-{4-[(methylsulfonyl)amino]phenyl}-4-oxochromen-7-yloxy)methyl]benzoic acid], in [2], the “mCPP-induced anxiogenesis (social interaction)” value is on record as “did not prevent mCPP-induced anxiogenesis”. In addition, in assay [3] (3.75-15 mg/kg during 1st and 2nd withdrawals, none after 3rd cycle, tested 5 days after last dose), the “social interaction behavior, prophylactic treatment” value is on record as “increased social interaction behavior prophylactically”. For the same compound, in assay [3] (acute treatment after alcohol withdrawal, SD rats), the locomotor activity result is recorded as “No significant differences”. In addition, the “time of social interaction after alcohol withdrawal” value in assay [3] (acute, 3.75 and 15 mg/kg injected 30 min before testing, SD rats) is “increased the time of social interaction”. Moreover, in [3] (acute, higher doses, SD rats), the “social interaction behavior after alcohol withdrawal” value is recorded as “completely normalizing the behavior”. The “locomotor activity (line crosses), prophylactic treatment” value in assay [3] (compared to vehicle treated rats withdrawn from the alcohol liquid diet) was “barely significant effect”. In the assay with Rats [4] (30 min before test, n=6), the “Center Entries, Mean” value was 19.3 and the “Line Crosses, Mean” value came out at 109. In the assay with Rats [4] (setting [9]), the “Center Entries, individual rat” value is 28 and 25 and 18 and 13 and 26 and 6; the “Line Crosses, individual rat” value was 135 and 125 and 84 and 113 and 104 and 90. Further, the “Social Interaction, Mean” value in the assay on Rats [4] (30 min before the social interaction, n=6) was 13.3. Besides, the “Social Interaction, individual rat” value in the assay on Rats [4] (30 min before the social interaction, listed as Comp. A) was 13 and 16 and 14 (2×) and 11 and 12. Besides, in the assay with Rats [4] (vs vehicle), the “activity, in words” value is “not activity” and the “social interaction (anxiolytic effect), in words” value is given as “increased social interaction”. In the assay on Rats [5], the “food intake, in words” value was “did not affect” and the “water intake, in words” value was “did not affect”. In the assay on Rats [5] (2 hr, n=6), the “2 hr Alcohol Intake, Mean” value was found to be 0.2. For the same compound, the “2 hr Alcohol Intake, individual rat” value with Rats [5] (2 hr, listed as Comp. A) is 0 (2×) and 0.38 (3×) and 0.19. Further, the “4 hr Alcohol Intake, Mean” value in the assay on Rats [5] (4 hr, n=6) was 0.7. The “4 hr Alcohol Intake, individual rat” value in the assay with Rats [5] (4 hr, listed as Comp. A) is 0.88 and 0.4 and 0.76 and 0.95 and 0.38 and 0.57. In addition, the “6 hr Alcohol Intake, Mean” value in the assay with Rats [5] (6 hr, n=6) worked out at 1.3. In addition, the “6 hr Alcohol Intake, individual rat” value with Rats [5] (6 hr, listed as Comp. A) was 1.72 and 1.2 and 1.23 and 1.71 and 0.95 and 1. Further, in the assay on Rats [5] (24 hr, n=6), the “24 hr Alcohol Intake, Mean” value is recorded as 4.1. The “24 hr Alcohol Intake, individual rat” value in the assay on Rats [5] (24 hr, listed as Comp. A) is 3.2 and 4 and 4.94 and 5.32 and 3.23 and 3.6. Moreover, the “alcohol intake, in words” value with Rats [5] (from 2-6 hr) was “reduced alcohol intake”. Also, the “Food Intake, Mean” value with Rats [5] (n=6) turned out to be 19.7. In the assay with Rats [5] (listed as Comp. A), the “Food Intake, individual rat” value was 19 (2×) and 18 and 21 (2×) and 20. In addition, in [6], the “anxiogenic effects of DMCM (reduced social interaction)” value is on record as “prevented by Compound A in a dose-dependent manner” and the “reduced locomotor activity caused by DMCM” value is “not affected by Compound A, except at 7.5 mg/kg”. Further, in assay [7], the locomotor line crossing entry is on record as “did not affect locomotor line crossing”. The “increase in social interaction” value in [7] (vs vehicle) amounted to 2 fold. In addition, the “locomotor activity after restraint stress” value in assay [8] is listed as “no significant”. In addition, the “social interaction after restraint stress” value in [8] (restraint 60 min, 30-min recovery) is “prevented stress-induced anxiety-like behavior”.
